The source of these data is patent US20160176924A1, “MODIFIED PEPTIDES AS POTENT INHIBITORS OF THE PSD-95/NMDA RECEPTOR INTERACTION” (priority 2008, published 2016).

Usually Ki stands for the dissociation constant of the complex between target and ligand, obtained from inhibition or displacement.

Read-outs that look alike come from different tables or passages of the source. Numbered stars: 1 amine (or outer) side, 2 acyl side, 3 side chain; on linkers, the order of the positions; unused ones are H or OH. Bridge positions count the residues as written; N and C are the ends. Square brackets hold non-standard residues; d marks the D form. Ends that are not written are not given here. Peptide text beside a SMILES is read from it. I, II: the chains in the order shown. CO(CH2CH2O)13CH2CH2CO = O=C(CCOCCOCCOCCOCCOCCOCCOCCOCCOCCOCCOCCOCCOCCC(=O)[*:2])[*:1]; CO(CH2CH2O)9CH2CH2CO = O=C(CCOCCOCCOCCOCCOCCOCCOCCOCCOCCC(=O)[*:2])[*:1]; NMeE = CN[C@@H](CCC(=O)O)C(=O)O Bounds are passed on as bounds.

Series [1] addresses T1, PDZ2 of PSD-95 (Homo sapiens, UniProt P78352).
T1 construct: PDZ2 (residues 155-249); made in house; host or cells: E. coli BL21-DE3 pLysS
The series can be described thus: FP heterologous competition binding assay. Conditions: for Ki: FP competition, mean ± SEM, NA = no activity/affinity; for affinity to PDZ2, in words: FP assay. The text has this:
(§1) Determined IC50 values may be converted to Ki values.^5 Suitable fluorophores include either 5-FAM or Cy5, which may be coupled to a tripeptide (KSG or CSG) linker attached to the N-terminus of the undecapeptide, to give 5-FAM-NR2B, Cy5-NR2B, 5-FAM-CRIPT and Cy5-CRIPT. The 5-FAM fluorophore may be attached to the undecapeptides by coupling with HATU. The Cy5 fluorophore may be conjugated to the undecapeptides by coupling Cy5-maleimide to the cysteine side chain of the tripeptide sequence CSG attached to the N-terminus of the peptide, as detailed in the Methodology section.
(§2) To measure the affinities between non-fluorescent peptides and PDZ domains, heterologous competition bindings assay were performed. This was done by adding increasing concentrations of peptide to a fixed concentration of Cy5-NR2B, 5-FAM-NR2B, Cy5-CRIPT or 5-FAM-CRIPT (50 nM) and PDZ (20 μM for PDZ1, 3 μM for PDZ2 and 1-2 and 5 μM for PDZ3) in the same TBS buffer and conditions as described above. FP values were then fitted to the general equation: Y=Bottom+(Top−Bottom)/[1[…](10̂^X-logIC50)], where X is the logarithmic value of peptide concentration. Hereby the IC50 value was obtained, which is used to calculate the theoretical competitive inhibition constant, Ki.^5
(§3) A convenient and reliable way to examine interactions between peptide analogues and PDZ domains is by using a fluorescence polarization (FP) assay. The three PDZ domains, PDZ1-3, of PSD-95 were expressed individually as set out above, while PDZ1-2 was also expressed as a tandem construct. […] IC50 values were then converted to Ki values.^5

In series [2] the target is T2, PDZ1-2 tandem of PSD-95 (Homo sapiens, UniProt P78352).
T2 construct: PDZ1-2 (residues 61-249) tandem; made in house; host or cells: E. coli BL21-DE3 pLysS
Kind of series: FP heterologous competition binding assay. Conditions: mean ± SEM.
Text: as §1, §2, §3

The target in series [3] is T3, PDZ1 of PSD-95 (Homo sapiens, UniProt P78352).
T3 construct: PSD-95 PDZ1 (residues 61-151); made in house; host or cells: E. coli BL21-DE3 pLysS
The series can be described thus: FP heterologous competition binding assay. Conditions: for Ki: FP competition, mean ± SEM, NA = no activity/affinity.
Text: as §1, §2, §3

The nature of series [4]: Human blood plasma stability assay. The series is classed as in vitro ADME. The procedure:
In this assay, the half-life (T1/2) of a compound in blood plasma is measured in vitro, whereby its susceptibility to degradation by proteases, peptidases and general plasma contents is quantified.
Compounds of interest were dissolved in human blood plasma (270 μl; 3H Biomedical, Sweden, cat no 1300-1-P50) to a concentration of 0.25 mM (30 μL of 2.5 mM) and incubated at 37° C. Aliquots (30 μl) were removed at various time intervals (0, 5, 10, 20, 40, 80, 160, 320, 960, 1280, 2550, 4560 and 7240 min) and quenched with 60 μL trichloroacetic acid (aq., 5%). The aliquots were vortexed, and incubated for at least 15 min, at 4° C. prior to centrifugation at 18,000 g for 2 min and the supernatant was analyzed by RP-HPLC to quantify the remaining compound (absorbance at 218 nm).

With `CC(C)[C@H](NC(=O)[C@H](CC(=O)O)NC(=O)[C@H](CO)NC(=O)[C@H](CCC(=O)O)NC(=O)CCOCCOCCOCCOCCOCCOCCOCCOCCOCCOCCOCCOCCOCCC(=O)N[C@@H](CCC(=O)O)C(=O)N[C@@H](CO)C(=O)N[C@@H](CC(=O)O)C(=O)N[C@H](C(=O)O)C(C)C)C(=O)O` [Compound 84] (I: ESDV-OH / II: ESDV-OH; linker I:N-II:N via CO(CH2CH2O)13CH2CH2CO; C-terminus assumed), the inhibition constant (Ki) in series [1] stood at 22 ± 0.18 µM.

Turning to `CC(C)[C@H](NC(=O)[C@H](CC(=O)O)NC(=O)[C@H](CO)NC(=O)[C@H](CCC(=O)O)NC(=O)CCOCCOCCOCCOCCOCCOCCOCCOCCOCCC(=O)N[C@@H](CCC(=O)O)C(=O)N[C@@H](CO)C(=O)N[C@@H](CC(=O)O)C(=O)N[C@H](C(=O)O)C(C)C)C(=O)O` [Compound 85] (I: ESDV-OH / II: ESDV-OH; linker I:N-II:N via CO(CH2CH2O)9CH2CH2CO; C-terminus assumed), in series [2], the inhibition constant (Ki) came to 1 ± 0.05 µM. Regarding `CC(C)[C@H](NC(=O)[C@H](CC(=O)O)NC(=O)[C@H](CO)NC(=O)[C@@H](N)CCC(=O)O)C(=O)O` [ESDV (8), ESDV] (H-ESDV-OH; N-terminus and C-terminus assumed), the Ki in series [2] was determined as 28 ± 2.9 µM; in series [3], 56 ± 2.4 µM; in series [1] it was 28 ± 0.92 µM. Further, the “fold increase in Ki (loss of affinity) compared to NR2B peptide (1), PDZ1” value (“fold increase in Ki (loss of affinity) … PDZ1” below) in series [3] is given as 3.1 fold. Also, in series [1], the “fold increase in Ki (loss of affinity) compared to NR2B peptide (1), PDZ2” value (“fold increase in Ki (loss of affinity) … PDZ2” for short) was found to be 6.8 fold. Take `CC[C@H](C)[C@H](N)C(=O)N[C@@H](C)C(=O)N[C@H](C(=O)N(C)[C@@H](C)C(=O)N[C@H](C(=O)O)C(C)C)[C@@H](C)O` [IATAMeV (89), IATAMeV]: the half-life at […] in series [4] (human, plasma, Blood plasma half life (T1/2)) turned out to be 0.533 h. `CC(C)[C@H](NC(=O)[C@H](C)NC(=O)[C@@H](NC(=O)[C@H](CCC(N)=O)NCCC1CCCCC1)[C@@H](C)O)C(=O)O` [QTAV (72)]: the inhibitory constant (Ki) in series [3] was 21 ± 1.1 µM. Consider `CC(C)[C@H](NC(=O)[C@H](C)NC(=O)[C@@H](N)[C@@H](C)O)C(=O)O` [TAV (49), TAV] (H-Thr-Ala-Val-OH; N-terminus and C-terminus assumed), for which, in series [3], the “fold increase in Ki (loss of affinity) … PDZ1” value is on record as “ca. 2 fold” and the Ki was 42 µM. For the same compound, in series [1], the “fold increase in Ki (loss of affinity) … PDZ2” value is reported as around 9 fold and the inhibition constant Ki amounted to 37 µM. In the case of EMeTDV ([NMeE]TDV) [Compound 36], the “fold increase in affinity (more potent) compared to NR2B peptide (1), PDZ1” value in series [3] is on record as “ca. 3 fold”. For the same compound, the “affinity to PDZ2, in words” value in series [1] is reported as “only slightly less potent”. For EMeTQV ([NMeE]TQV) [Compound 39], the “fold increase in affinity (more potent) compared to NR2B peptide (1), PDZ1” value in series [3] was “ca. 3 fold”. Further, in series [1], the “affinity to PDZ2, in words” value was “only slightly less potent”. Take IESDV-PEG4 [IESDV-PEG4 (91)]: the “fold increase in half life compared to non-pegylated peptide 7” value in series [4] (human) is given as “about 10 fold”. Further, the “Blood plasma half life (T1/2)” value in series [4] (human, plasma) worked out at 10 h. As for SDV, the “fold increase in Ki (loss of affinity) … PDZ1” value in series [3] is given as above 20 fold. Moreover, the “fold increase in Ki (loss of affinity) … PDZ2” value in series [1] is on record as above 30 fold. With “YGRKKRRQRRRKLSSIESDV [Tat-NR2B (3), reference compound] [listing 1 of 2 here]”, the half-life at […] in series [4] (human blood plasma, 37° C., 0.25 mM, read-out: Blood plasma half life (T1/2)) is 24.5 h. In the case of “YGRKKRRQRRRKLSSIESDV [Tat-NR2B (3), reference compound] [listing 2 of 2 here]”, the inhibitory constant (Ki) in series [2] was found to be 9.8 ± 0.35 µM.
